According to the kinase profiling compilation of Christmann-Franck et al. (2016):
“And” between values parts separate entries of the source, which are not always exact repeats. Equal entries are not always repeated.

What was measured:
Experiment in all cases: radiometric filter-binding kinase assay
AURKB (human) = AURKB (human) (UniProt Q96GD4)
BRSK1 (human) = BRSK1 (human) (UniProt Q8TDC3)
BRSK2 (human) = BRSK2 (human) (UniProt Q8IWQ3)
CAMKK2 (human) = CAMKK2 (human) (UniProt Q96RR4)
CHEK1 (human) = CHEK1 (human) (UniProt O14757)
CHEK2 (human) = CHEK2 (human) (UniProt O96017)
CHEK2 (human), sequence (O96017 whole entry, looked up): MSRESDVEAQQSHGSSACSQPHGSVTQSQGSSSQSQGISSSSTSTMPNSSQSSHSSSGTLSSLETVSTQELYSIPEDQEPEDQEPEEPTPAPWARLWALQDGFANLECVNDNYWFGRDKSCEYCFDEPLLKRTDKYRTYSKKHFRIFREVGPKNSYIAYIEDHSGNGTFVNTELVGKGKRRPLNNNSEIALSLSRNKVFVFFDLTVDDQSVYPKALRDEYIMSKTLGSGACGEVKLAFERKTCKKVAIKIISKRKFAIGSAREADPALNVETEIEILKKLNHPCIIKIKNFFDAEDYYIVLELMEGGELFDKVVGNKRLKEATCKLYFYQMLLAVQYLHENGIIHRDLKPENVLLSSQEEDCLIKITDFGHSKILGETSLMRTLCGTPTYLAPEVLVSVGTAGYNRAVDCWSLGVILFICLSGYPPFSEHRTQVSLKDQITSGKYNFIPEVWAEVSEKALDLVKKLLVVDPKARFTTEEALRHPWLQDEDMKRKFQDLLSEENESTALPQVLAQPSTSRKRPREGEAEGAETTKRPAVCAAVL

CLK2 (human) = CLK2 (human) (UniProt P49760)
CSNK2A1 (human) = CSNK2A1 (human) (UniProt P68400)
DAPK1 (human) = DAPK1 (human) (UniProt P53355)
DAPK1 (human), sequence (P53355 whole entry, looked up): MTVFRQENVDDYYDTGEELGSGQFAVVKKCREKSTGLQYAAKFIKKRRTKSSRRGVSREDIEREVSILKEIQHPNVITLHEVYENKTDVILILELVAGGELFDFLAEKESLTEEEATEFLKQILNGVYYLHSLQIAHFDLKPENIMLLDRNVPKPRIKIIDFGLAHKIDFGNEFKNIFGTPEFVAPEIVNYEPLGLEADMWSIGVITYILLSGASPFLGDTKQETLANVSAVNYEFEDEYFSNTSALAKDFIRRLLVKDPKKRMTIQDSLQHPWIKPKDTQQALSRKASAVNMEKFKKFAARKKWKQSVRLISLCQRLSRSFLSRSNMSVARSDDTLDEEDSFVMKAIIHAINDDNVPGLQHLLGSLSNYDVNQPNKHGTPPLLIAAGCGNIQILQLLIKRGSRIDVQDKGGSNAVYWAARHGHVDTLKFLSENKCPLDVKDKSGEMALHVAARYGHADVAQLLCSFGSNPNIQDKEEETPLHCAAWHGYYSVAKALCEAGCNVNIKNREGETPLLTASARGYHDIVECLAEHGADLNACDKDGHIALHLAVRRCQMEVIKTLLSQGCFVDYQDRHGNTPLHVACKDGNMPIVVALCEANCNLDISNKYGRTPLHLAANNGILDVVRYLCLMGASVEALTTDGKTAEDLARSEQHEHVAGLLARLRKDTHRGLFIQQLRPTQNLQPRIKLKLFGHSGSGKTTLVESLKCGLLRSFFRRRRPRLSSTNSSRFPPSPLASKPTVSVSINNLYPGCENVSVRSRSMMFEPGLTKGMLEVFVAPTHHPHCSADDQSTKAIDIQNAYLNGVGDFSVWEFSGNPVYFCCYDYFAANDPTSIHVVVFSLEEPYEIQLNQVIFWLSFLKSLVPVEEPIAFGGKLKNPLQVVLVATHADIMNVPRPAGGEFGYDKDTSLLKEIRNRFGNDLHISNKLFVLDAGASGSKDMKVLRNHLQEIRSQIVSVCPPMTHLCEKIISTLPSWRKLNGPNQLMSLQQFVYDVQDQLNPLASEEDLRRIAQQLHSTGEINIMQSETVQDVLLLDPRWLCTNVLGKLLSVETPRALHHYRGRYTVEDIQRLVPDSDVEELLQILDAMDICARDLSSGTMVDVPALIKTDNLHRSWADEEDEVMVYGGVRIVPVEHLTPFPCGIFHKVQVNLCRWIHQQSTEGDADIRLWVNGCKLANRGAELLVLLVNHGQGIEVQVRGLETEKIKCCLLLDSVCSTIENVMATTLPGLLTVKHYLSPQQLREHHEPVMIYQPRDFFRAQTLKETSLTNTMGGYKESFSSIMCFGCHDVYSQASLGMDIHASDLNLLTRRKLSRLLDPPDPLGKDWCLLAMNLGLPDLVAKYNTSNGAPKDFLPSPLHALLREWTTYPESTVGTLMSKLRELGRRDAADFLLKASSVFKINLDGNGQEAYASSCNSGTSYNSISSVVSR

EEF2K (human) = EEF2K (human) (UniProt O00418)
EEF2K (human), sequence (O00418 whole entry, looked up): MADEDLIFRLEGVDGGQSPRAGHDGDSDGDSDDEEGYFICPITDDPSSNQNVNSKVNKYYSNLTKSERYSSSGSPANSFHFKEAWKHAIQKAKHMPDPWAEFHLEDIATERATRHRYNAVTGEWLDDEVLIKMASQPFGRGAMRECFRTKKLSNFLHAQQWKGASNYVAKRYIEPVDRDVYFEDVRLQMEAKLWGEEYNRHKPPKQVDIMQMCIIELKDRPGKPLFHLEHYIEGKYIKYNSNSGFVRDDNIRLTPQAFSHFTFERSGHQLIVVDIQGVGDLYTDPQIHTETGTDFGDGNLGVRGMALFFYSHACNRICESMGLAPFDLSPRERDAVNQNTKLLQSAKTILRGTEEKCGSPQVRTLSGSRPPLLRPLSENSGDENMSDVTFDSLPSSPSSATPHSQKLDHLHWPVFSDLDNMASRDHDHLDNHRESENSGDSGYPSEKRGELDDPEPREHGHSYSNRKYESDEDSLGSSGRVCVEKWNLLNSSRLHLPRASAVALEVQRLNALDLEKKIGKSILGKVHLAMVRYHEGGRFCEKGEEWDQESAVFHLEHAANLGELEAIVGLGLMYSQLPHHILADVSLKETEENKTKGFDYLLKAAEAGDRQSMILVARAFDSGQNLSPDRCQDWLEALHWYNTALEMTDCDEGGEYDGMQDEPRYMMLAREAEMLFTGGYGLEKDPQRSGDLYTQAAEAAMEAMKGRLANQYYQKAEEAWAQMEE

EPHA2 (human) = EPHA2 (human) (UniProt P29317)
EPHA2 (human), sequence (P29317 whole entry, looked up): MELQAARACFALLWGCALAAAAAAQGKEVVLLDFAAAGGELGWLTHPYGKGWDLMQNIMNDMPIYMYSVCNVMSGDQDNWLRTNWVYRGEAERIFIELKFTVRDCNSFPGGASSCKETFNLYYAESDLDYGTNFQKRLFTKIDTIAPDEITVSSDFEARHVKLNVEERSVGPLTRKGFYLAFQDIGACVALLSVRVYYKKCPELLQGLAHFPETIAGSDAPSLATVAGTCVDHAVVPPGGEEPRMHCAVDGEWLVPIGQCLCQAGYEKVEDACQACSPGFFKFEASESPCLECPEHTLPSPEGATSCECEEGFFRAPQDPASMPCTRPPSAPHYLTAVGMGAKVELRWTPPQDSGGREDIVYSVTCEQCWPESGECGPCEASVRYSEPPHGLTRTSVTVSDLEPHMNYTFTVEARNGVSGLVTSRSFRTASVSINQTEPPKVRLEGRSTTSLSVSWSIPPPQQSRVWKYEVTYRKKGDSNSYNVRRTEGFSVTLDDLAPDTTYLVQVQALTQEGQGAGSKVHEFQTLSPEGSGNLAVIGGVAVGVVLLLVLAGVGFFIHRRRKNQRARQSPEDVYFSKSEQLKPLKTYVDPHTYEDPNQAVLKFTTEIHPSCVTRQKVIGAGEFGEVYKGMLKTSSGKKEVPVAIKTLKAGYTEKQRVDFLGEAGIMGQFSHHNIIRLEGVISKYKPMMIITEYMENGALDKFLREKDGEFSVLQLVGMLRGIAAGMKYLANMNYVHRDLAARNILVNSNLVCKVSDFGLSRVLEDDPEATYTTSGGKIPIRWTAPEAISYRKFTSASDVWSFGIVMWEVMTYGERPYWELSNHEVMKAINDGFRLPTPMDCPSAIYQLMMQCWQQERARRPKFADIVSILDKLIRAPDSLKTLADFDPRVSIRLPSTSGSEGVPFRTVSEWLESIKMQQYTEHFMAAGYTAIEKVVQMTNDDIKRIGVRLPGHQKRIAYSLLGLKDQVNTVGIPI

EPHB2 (human) = EPHB2 (human) (UniProt P29323)
EPHB3 (human) = EPHB3 (human) (UniProt P54753)
EPHB3 (human), sequence (P54753 whole entry, looked up): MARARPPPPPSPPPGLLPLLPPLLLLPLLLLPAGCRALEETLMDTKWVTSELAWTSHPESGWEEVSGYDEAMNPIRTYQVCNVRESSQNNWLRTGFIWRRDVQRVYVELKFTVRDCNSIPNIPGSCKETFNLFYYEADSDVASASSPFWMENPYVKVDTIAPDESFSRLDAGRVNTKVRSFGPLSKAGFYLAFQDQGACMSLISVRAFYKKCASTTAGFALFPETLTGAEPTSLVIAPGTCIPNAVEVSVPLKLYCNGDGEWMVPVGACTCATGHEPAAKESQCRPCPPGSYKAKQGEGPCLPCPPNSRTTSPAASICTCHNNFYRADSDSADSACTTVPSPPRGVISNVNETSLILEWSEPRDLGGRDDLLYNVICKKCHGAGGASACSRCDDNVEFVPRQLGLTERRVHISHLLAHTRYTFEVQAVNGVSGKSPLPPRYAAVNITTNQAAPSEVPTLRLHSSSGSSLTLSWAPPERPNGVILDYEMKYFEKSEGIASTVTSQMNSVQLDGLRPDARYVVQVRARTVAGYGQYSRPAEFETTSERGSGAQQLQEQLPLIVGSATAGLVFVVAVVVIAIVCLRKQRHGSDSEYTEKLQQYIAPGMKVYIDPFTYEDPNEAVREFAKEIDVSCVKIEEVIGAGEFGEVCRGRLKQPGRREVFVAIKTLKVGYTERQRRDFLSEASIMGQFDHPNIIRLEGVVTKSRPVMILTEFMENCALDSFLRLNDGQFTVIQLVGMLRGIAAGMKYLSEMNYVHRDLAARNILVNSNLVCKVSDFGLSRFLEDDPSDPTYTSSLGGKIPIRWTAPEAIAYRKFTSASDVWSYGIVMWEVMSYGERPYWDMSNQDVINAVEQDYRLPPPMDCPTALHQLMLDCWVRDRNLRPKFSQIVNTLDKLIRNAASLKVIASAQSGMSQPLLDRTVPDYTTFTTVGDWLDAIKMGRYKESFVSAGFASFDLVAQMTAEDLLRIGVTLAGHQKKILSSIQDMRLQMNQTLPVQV

HIPK3 (human) = HIPK3 (human) (UniProt Q9H422)
IKBKB (human) = IKBKB (human) (UniProt O14920)
INSR (human) = INSR (human) (UniProt P06213)
IRAK4 (human) = IRAK4 (human) (UniProt Q9NWZ3)
MAP2K6 (human) = MAP2K6 (human) (UniProt P52564)
MAP3K5 (human) = MAP3K5 (human) (UniProt Q99683)
MAPK11 (human) = MAPK11 (human) (UniProt Q15759)
MAPK11 (human), sequence (Q15759 whole entry, looked up): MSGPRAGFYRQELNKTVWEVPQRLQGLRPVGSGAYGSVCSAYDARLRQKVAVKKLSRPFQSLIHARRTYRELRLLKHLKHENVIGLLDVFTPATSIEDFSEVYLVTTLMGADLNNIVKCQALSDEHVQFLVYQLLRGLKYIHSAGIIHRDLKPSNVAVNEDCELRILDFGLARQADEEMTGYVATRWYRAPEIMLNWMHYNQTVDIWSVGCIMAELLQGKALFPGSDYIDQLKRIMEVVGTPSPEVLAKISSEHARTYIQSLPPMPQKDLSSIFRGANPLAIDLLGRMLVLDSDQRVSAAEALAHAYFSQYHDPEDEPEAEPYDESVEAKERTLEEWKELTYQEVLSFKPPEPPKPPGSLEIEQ

MAPK13 (human) = MAPK13 (human) (UniProt O15264)
MARK3 (human) = MARK3 (human) (UniProt P27448)
MKNK2 (human) = MKNK2 (human) (UniProt Q9HBH9)
MYLK (human) = MYLK (human) (UniProt Q15746)
NTRK1 (human) = NTRK1 (human) (UniProt P04629)
NUAK1 (human) = NUAK1 (human) (UniProt O60285)
PAK6 (human) = PAK6 (human) (UniProt Q9NQU5)
PDPK1 (human) = PDPK1 (human) (UniProt O15530); settings: compound 10.0 µM
[1] = biological target: PRKAA1 PRKAB2 PRKAG1 (human) (UniProt O43741+Q13131+P54619)
PRKCA (human) = PRKCA (human) (UniProt P17252)
RIPK2 (human) = RIPK2 (human) (UniProt O43353)
RPS6KA5 KD1 KD2 (human) = RPS6KA5 KD1 KD2 (human) (UniProt O75582)
[2] = tested on: RPS6KB1 (human), P23443 [T412E]
SRC (human) = SRC (human) (UniProt P12931)
SRPK1 (human) = SRPK1 (human) (UniProt Q96SB4)

Cc1nc(N)sc1-c1csc(Nc2cccnc2)n1
residual activity (AURKB (human); compound 10.0 µM): 70% | residual activity (AURKB (human); compound 100.0 µM): 3% | residual activity (BRSK1 (human); compound 10.0 µM): 80% | residual activity (BRSK2 (human); compound 10.0 µM): 70% | residual activity (CAMKK2 (human); compound 10.0 µM): 62% | residual activity (CHEK1 (human); compound 10.0 µM): 90% | residual activity (CHEK2 (human); compound 10.0 µM): 57% | residual activity (CHEK2 (human); compound 100.0 µM): 10% | residual activity (CLK2 (human); compound 10.0 µM): 18% | residual activity (CLK2 (human); compound 100.0 µM): 3% | residual activity (CSNK2A1 (human); compound 10.0 µM): 63% | residual activity (DAPK1 (human); compound 10.0 µM): 71% | residual activity (EEF2K (human); compound 10.0 µM): 77% | residual activity (EPHA2 (human); compound 10.0 µM): 103% | residual activity (EPHB2 (human); compound 10.0 µM): 93% | residual activity (EPHB3 (human); compound 10.0 µM): 101% | residual activity (HIPK3 (human); compound 10.0 µM): 60% | residual activity (IKBKB (human); compound 10.0 µM): 56% | residual activity (INSR (human); compound 10.0 µM): 34% | residual activity (INSR (human); compound 100.0 µM): 69% | residual activity (IRAK4 (human); compound 10.0 µM): 74% | residual activity (MAP2K6 (human); compound 10.0 µM): 94% | residual activity (MAP3K5 (human); compound 10.0 µM): 96% | residual activity (MAPK11 (human); compound 10.0 µM): 96% | residual activity (MAPK11 (human); compound 100.0 µM): 87% | residual activity (MAPK13 (human); compound 10.0 µM): 88% | residual activity (MAPK13 (human); compound 100.0 µM): 46% | residual activity (MARK3 (human); compound 10.0 µM): 84% | residual activity (MKNK2 (human); compound 10.0 µM): 65% | residual activity (MYLK (human); compound 10.0 µM): 68% | residual activity (NTRK1 (human); compound 10.0 µM): 73% | residual activity (NUAK1 (human); compound 10.0 µM): 42% | residual activity (NUAK1 (human); compound 100.0 µM): 11% | residual activity (PAK6 (human); compound 10.0 µM): 84% | residual activity (PDPK1 (human)): 84% and 86% | residual activity ([1]; compound 10.0 µM): 83% | residual activity (PRKCA (human); compound 10.0 µM): 67% | residual activity (RIPK2 (human); compound 10.0 µM): 52% | residual activity (RIPK2 (human); compound 100.0 µM): 23% | residual activity (RPS6KA5 KD1 KD2 (human); compound 10.0 µM): 88% | residual activity ([2]; compound 10.0 µM): 64% | residual activity (SRC (human); compound 10.0 µM): 91% | residual activity (SRPK1 (human); compound 10.0 µM): 82%

O=C1c2ccccc2-c2n[nH]c3cccc1c23
residual activity (AURKB (human); compound 1.0 µM): 15% | residual activity (AURKB (human); compound 10.0 µM): 13% | residual activity (BRSK1 (human); compound 1.0 µM): 48% | residual activity (BRSK1 (human); compound 10.0 µM): 29% | residual activity (BRSK2 (human); compound 1.0 µM): 46% | residual activity (BRSK2 (human); compound 10.0 µM): 32% | residual activity (CAMKK2 (human); compound 1.0 µM): 45% | residual activity (CAMKK2 (human); compound 10.0 µM): 22% | residual activity (CHEK1 (human); compound 1.0 µM): 59% | residual activity (CHEK1 (human); compound 10.0 µM): 26% | residual activity (CHEK2 (human); compound 1.0 µM): 21% | residual activity (CHEK2 (human); compound 10.0 µM): 5% | residual activity (CLK2 (human); compound 1.0 µM): 16% | residual activity (CLK2 (human); compound 10.0 µM): 3% | residual activity (CSNK2A1 (human); compound 1.0 µM): 81% | residual activity (CSNK2A1 (human); compound 10.0 µM): 28% | residual activity (DAPK1 (human); compound 1.0 µM): 50% | residual activity (DAPK1 (human); compound 10.0 µM): 37% | residual activity (EEF2K (human); compound 1.0 µM): 94% | residual activity (EEF2K (human); compound 10.0 µM): 96% | residual activity (EPHA2 (human); compound 1.0 µM): 78% | residual activity (EPHA2 (human); compound 10.0 µM): 42% | residual activity (EPHB2 (human); compound 1.0 µM): 111% | residual activity (EPHB2 (human); compound 10.0 µM): 47% | residual activity (EPHB3 (human); compound 1.0 µM): 102% | residual activity (EPHB3 (human); compound 10.0 µM): 49% | residual activity (HIPK3 (human); compound 1.0 µM): 90% | residual activity (HIPK3 (human); compound 10.0 µM): 33% | residual activity (IKBKB (human); compound 1.0 µM): 75% | residual activity (IKBKB (human); compound 10.0 µM): 38% | residual activity (INSR (human); compound 1.0 µM): 89% | residual activity (INSR (human); compound 10.0 µM): 27% | residual activity (IRAK4 (human); compound 1.0 µM): 33% | residual activity (IRAK4 (human); compound 10.0 µM): 8% | residual activity (MAP2K6 (human); compound 1.0 µM): 80% | residual activity (MAP2K6 (human); compound 10.0 µM): 27% | residual activity (MAP3K5 (human); compound 1.0 µM): 19% | residual activity (MAP3K5 (human); compound 10.0 µM): 6% | residual activity (MAPK11 (human); compound 1.0 µM): 102% | residual activity (MAPK11 (human); compound 10.0 µM): 38% | residual activity (MAPK13 (human); compound 1.0 µM): 98% | residual activity (MAPK13 (human); compound 10.0 µM): 26% | residual activity (MARK3 (human); compound 1.0 µM): 41% | residual activity (MARK3 (human); compound 10.0 µM): 14% | residual activity (MKNK2 (human); compound 1.0 µM): 61% | residual activity (MKNK2 (human); compound 10.0 µM): 29% | residual activity (MYLK (human); compound 1.0 µM): 26% | residual activity (MYLK (human); compound 10.0 µM): 11% | residual activity (NTRK1 (human); compound 1.0 µM): 27% | residual activity (NTRK1 (human); compound 10.0 µM): 14% | residual activity (NUAK1 (human); compound 1.0 µM): 38% | residual activity (NUAK1 (human); compound 10.0 µM): 21% | residual activity (PAK6 (human); compound 1.0 µM): 91% | residual activity (PAK6 (human); compound 10.0 µM): 54% | residual activity (PDPK1 (human)): 33% and 37% | residual activity ([1]; compound 1.0 µM): 70% | residual activity ([1]; compound 10.0 µM): 31% | residual activity (PRKCA (human); compound 1.0 µM): 78% | residual activity (PRKCA (human); compound 10.0 µM): 27% | residual activity (RIPK2 (human); compound 1.0 µM): 80% | residual activity (RIPK2 (human); compound 10.0 µM): 48% | residual activity (RPS6KA5 KD1 KD2 (human); compound 1.0 µM): 75% | residual activity (RPS6KA5 KD1 KD2 (human); compound 10.0 µM): 49% | residual activity ([2]; compound 1.0 µM): 75% | residual activity ([2]; compound 10.0 µM): 30% | residual activity (SRC (human); compound 1.0 µM): 81% | residual activity (SRC (human); compound 10.0 µM): 41% | residual activity (SRPK1 (human); compound 1.0 µM): 91% | residual activity (SRPK1 (human); compound 10.0 µM): 77%
